Measured values published in article PMC6151383 (Molecules : A Journal of Synthetic Chemistry and Natural …, 2017).
≈ marks a conversion by molar mass, not a printed value. Like-named read-outs stand apart in the source and are kept apart here.

Assays:
[1] = tested on: Trichophyton interdigitale 445; experiment: Antifungal microdilution broth MIC, T. interdigitale; type: cell-based
[2] = tested on: Staphylococcus aureus CCM 4516/08; parameters: method as in PMID 22365879; settings: 48 h incubation; cited from earlier work
[3] = tested on: Staphylococcus epidermidis H 6966/08; parameters: method as in PMID 22365879; settings: 48 h incubation; cited from earlier work
[4] = tested on: Enterococcus faecalis J 14365/08; parameters: method as in PMID 22365879; settings: 48 h incubation; cited from earlier work
[5] = tested on: Escherichia coli CCM 4517; parameters: method as in PMID 22365879; settings: 48 h incubation; cited from earlier work
[6] = tested on: Klebsiella pneumoniae D 11750/08; parameters: method as in PMID 22365879; settings: 48 h incubation; cited from earlier work
[7] = tested on: ESBL-positive Klebsiella pneumoniae J 14368/08; parameters: method as in PMID 22365879; settings: 48 h incubation; cited from earlier work
[8] = tested on: Pseudomonas aeruginosa CCM 1961; parameters: method as in PMID 22365879; settings: 48 h incubation; cited from earlier work
[9] = tested on: Mycobacterium tuberculosis 331/88 (H37Rv); parameters: method as in PMID 22365879; settings: cited from earlier work
[10] = tested on: Mycobacterium avium 330/88; parameters: method as in PMID 22365879; settings: cited from earlier work
[11] = tested on: Mycobacterium kansasii 235/80; parameters: method as in PMID 22365879; settings: cited from earlier work
M. kansasii 6509/96 [12] = tested on: M. kansasii 6509/96; parameters: method as in PMID 22365879; settings: cited from earlier work
[13] = tested on: Candida albicans ATCC 44859; parameters: method as in PMID 22365879; settings: 48 h incubation; cited from earlier work
Candida tropicalis 156 [14] = tested on: Candida tropicalis 156; parameters: method as in PMID 22365879; settings: 48 h incubation; cited from earlier work
Candida krusei E28 [15] = tested on: Candida krusei E28; parameters: method as in PMID 22365879; settings: 48 h incubation; cited from earlier work
Candida glabrata 20/I [16] = tested on: Candida glabrata 20/I; parameters: method as in PMID 22365879; settings: 48 h incubation; cited from earlier work
Trichosporon asahii 1188 [17] = tested on: Trichosporon asahii 1188; parameters: method as in PMID 22365879; settings: 48 h incubation; cited from earlier work
[18] = tested on: Aspergillus fumigatus 231; parameters: method as in PMID 22365879; settings: 48 h incubation; cited from earlier work
[19] = tested on: Lichtheimia corymbifera 272; parameters: method as in PMID 22365879; settings: 48 h incubation; cited from earlier work
[20] = tested on: Trichophyton interdigitale 445; parameters: method as in PMID 22365879; settings: cited from earlier work
M. kansasii = tested on: M. kansasii; parameters: method as in PMID 22365879; settings: range over M. kansasii strains; cited from earlier work
[21] = tested on: Staphylococcus aureus CCM 4516/08; experiment: Antibacterial microdilution broth MIC, S. aureus; type: cell-based; settings: Staphylococcus aureus
[22] = tested on: Staphylococcus epidermidis H 6966/08; experiment: Antibacterial microdilution broth MIC, S. epidermidis; type: cell-based; settings: Staphylococcus epidermidis
[23] = tested on: Enterococcus faecalis J 14365/08; experiment: Antibacterial microdilution broth MIC, E. faecalis; type: cell-based; settings: Enterococcus faecalis
[24] = tested on: Escherichia coli CCM 4517; experiment: Antibacterial microdilution broth MIC, E. coli; type: cell-based; settings: Escherichia coli
[25] = tested on: Pseudomonas aeruginosa CCM 1961; experiment: Antibacterial microdilution broth MIC, P. aeruginosa; type: cell-based; settings: Pseudomonas aeruginosa
[26] = tested on: Mycobacterium tuberculosis 331/88 (H37Rv); experiment: In vitro antimycobacterial MIC, M. tuberculosis; type: cell-based
[27] = tested on: Mycobacterium avium 330/88; experiment: In vitro antimycobacterial MIC, M. avium; type: cell-based
[28] = tested on: Mycobacterium kansasii 235/80; experiment: In vitro antimycobacterial MIC, M. kansasii 235/80; type: cell-based
M. kansasii 6509/96 [29] = experiment: In vitro antimycobacterial MIC, M. kansasii clinical isolate; type: cell-based; settings: Mycobacterium kansasii
[30] = tested on: Candida albicans ATCC 44859; experiment: Antifungal microdilution broth MIC, C. albicans; type: cell-based
Candida tropicalis 156 [31] = experiment: Antifungal microdilution broth MIC, C. tropicalis; type: cell-based
Candida krusei E28 [32] = experiment: Antifungal microdilution broth MIC, C. krusei; type: cell-based; settings: Pichia kudriavzevii
Candida glabrata 20/I [33] = experiment: Antifungal microdilution broth MIC, C. glabrata; type: cell-based; settings: Nakaseomyces glabratus
Trichosporon asahii 1188 [34] = experiment: Antifungal microdilution broth MIC, T. asahii; type: cell-based
[35] = tested on: Aspergillus fumigatus 231; experiment: Antifungal microdilution broth MIC, A. fumigatus; type: cell-based
[36] = tested on: Lichtheimia corymbifera 272; experiment: Antifungal microdilution broth MIC, L. corymbifera; type: cell-based
Candida sp. = experiment: Selectivity index for Candida sp. (IC50 HepG2/MIC); type: cell-based; settings: all Candida species
[37] = tested on: ESBL-positive Klebsiella pneumoniae J 14368/08; settings: 48 h incubation
[38] = tested on: Klebsiella pneumoniae D 11750/08; experiment: Antibacterial microdilution broth MIC, K. pneumoniae; settings: 48 h incubation

In the case of O=S(=O)(Nc1ncccn1)c1ccc(N=Cc2cc(Cl)ccc2O)cc1 [Compound 2c, 4-[(5-Chloro-2-hydroxybenzylidene)amino]-N-(pyrimidin-2-yl)benzenesulfonamide], the “SI for TI” value ([1]; SI = IC50 (HepG2)/MIC, Trichophyton interdigitale) is given as “inactive”, the “MIC SA 48 h” value [2] is given as 250 µM (≈ 97.2 µg/mL) and the “MIC SE 48 h” value [3] is given as >500 µM. The “MIC EF 48 h” value [4] was >500 µM, the “MIC EC 48 h” value [5] was >500 µM and the “MIC KP 48 h” value [6] was >500 µM. The “MIC KP-E 48 h” value [7] was >500 µM, the “MIC PA 48 h” value [8] was >500 µM and the “MIC Mtb. 331/88 14 d” value ([9]; 14 d incubation) was 125 µM (≈ 48.6 µg/mL). For the same compound, the “MIC Mtb. 331/88 21 d” value ([9]; 21 d incubation) was 250 µM (≈ 97.2 µg/mL), the “MIC M. avium 330/88 14 d” value ([10]; 14 d incubation) was 125 µM (≈ 48.6 µg/mL) and the “MIC M. avium 330/88 21 d” value ([10]; 21 d incubation) was 125 µM (≈ 48.6 µg/mL). For the same compound, the “MIC M. kansasii 235/80 7 d” value ([11]; 7 d incubation) was 8 µM (≈ 3.11 µg/mL), the “MIC M. kansasii 235/80 14 d” value ([11]; 14 d incubation) was 16 µM (≈ 6.22 µg/mL) and the “MIC M. kansasii 235/80 21 d” value ([11]; 21 d incubation) was 32 µM (≈ 12.4 µg/mL). The “MIC M. kansasii 6509/96 7 d” value (M. kansasii 6509/96 [12]; 7 d incubation) was 16 µM (≈ 6.22 µg/mL), the “MIC M. kansasii 6509/96 14 d” value (M. kansasii 6509/96 [12]; 14 d incubation) was 32 µM (≈ 12.4 µg/mL) and the “MIC M. kansasii 6509/96 21 d” value (M. kansasii 6509/96 [12]; 21 d incubation) was 32 µM (≈ 12.4 µg/mL). For the same compound, the “MIC CA 48 h” value [13] was 125 µM (≈ 48.6 µg/mL), the “MIC CT 48 h” value (Candida tropicalis 156 [14]) was >500 µM and the “MIC CK 48 h” value (Candida krusei E28 [15]) was >500 µM. For the same compound, the “MIC CG 48 h” value (Candida glabrata 20/I [16]) was 125 µM (≈ 48.6 µg/mL), the “MIC TA 48 h” value (Trichosporon asahii 1188 [17]) was 125 µM (≈ 48.6 µg/mL) and the “MIC AF 48 h” value [18] was >500 µM. For the same compound, the “MIC LC 48 h” value [19] was >500 µM, the “MIC TI 72 h” value ([20]; 72 h incubation) was >500 µM and the “MIC TI 120 h” value ([20]; 120 h incubation) was >500 µM. The “MIC, M. kansasii strains” value (M. kansasii) was 8 to 32 µM.

With CC(C)(C)c1ccc(O)c(C=Nc2ccc(S(=O)(=O)Nc3ncccn3)cc2)c1 [Compound 2j, 4-{[5-(Tert-butyl)-2-hydroxybenzylidene]amino}-N-(pyrimidin-2-yl)benzenesulfonamide] the MIC ([21]; CCM4516, 24 h, read-out: MIC SA 24 h) was > 125 µM, the MIC ([21]; CCM4516, 48 h, read-out: MIC SA 48 h) was > 125 µM and the MIC ([22]; H6966/08, 24 h, read-out: MIC SE 24 h) was > 125 µM. For the same compound, the MIC ([22]; H6966/08, 48 h, read-out: MIC SE 48 h) was > 125 µM, the MIC ([23]; J14365/08, 24 h, read-out: MIC EF 24 h) was > 125 µM and the MIC ([23]; J14365/08, 48 h, read-out: MIC EF 48 h) was > 125 µM. The MIC ([24]; CCM4517, 24 h, read-out: MIC EC 24 h) was > 125 µM, the MIC ([24]; CCM4517, 48 h, read-out: MIC EC 48 h) was > 125 µM and the MIC ([25]; CCM1961, 24 h, read-out: MIC PA 24 h) was > 125 µM. The MIC ([25]; CCM1961, 48 h, read-out: MIC PA 48 h) was > 125 µM, the MIC ([26]; 336 h, 14 d incubation, read-out: MIC Mtb. 331/88 14 d) was 32 µM (≈ 13.1 µg/mL) and the MIC ([26]; 504 h, 21 d incubation, read-out: MIC Mtb. 331/88 21 d) was 62.5 µM (≈ 25.7 µg/mL). For the same compound, the MIC ([27]; 330/88, 336 h, 14 d incubation, read-out: MIC M. avium 330/88 14 d) was 125 µM (≈ 51.3 µg/mL), the MIC ([27]; 330/88, 504 h, 21 d incubation, read-out: MIC M. avium 330/88 21 d) was 125 µM (≈ 51.3 µg/mL) and the MIC ([28]; 235/80, 168 h, 7 d incubation, read-out: MIC M. kansasii 235/80 7 d) was 16 µM (≈ 6.57 µg/mL). It also gave an MIC ([28]; 235/80, 336 h, 14 d incubation, read-out: MIC M. kansasii 235/80 14 d) of 32 µM (≈ 13.1 µg/mL), an MIC ([28]; 235/80, 504 h, 21 d incubation, read-out: MIC M. kansasii 235/80 21 d) of 62.5 µM (≈ 25.7 µg/mL) and an MIC (M. kansasii 6509/96 [29]; 6509/96, 168 h, 7 d incubation, read-out: MIC M. kansasii 6509/96 7 d) of 16 µM (≈ 6.57 µg/mL). For the same compound, the MIC (M. kansasii 6509/96 [29]; 6509/96, 336 h, 14 d incubation, read-out: MIC M. kansasii 6509/96 14 d) was 16 µM (≈ 6.57 µg/mL), the MIC (M. kansasii 6509/96 [29]; 6509/96, 504 h, 21 d incubation, read-out: MIC M. kansasii 6509/96 21 d) was 32 µM (≈ 13.1 µg/mL) and the MIC ([30]; ATCC44859, 24 h, read-out: MIC CA 24 h) was > 125 µM. The MIC ([30]; ATCC44859, 48 h, read-out: MIC CA 48 h) was > 125 µM, the MIC (Candida tropicalis 156 [31]; Candida tropicalis, 156, 24 h, read-out: MIC CT 24 h) was > 125 µM and the MIC (Candida tropicalis 156 [31]; Candida tropicalis, 156, 48 h, read-out: MIC CT 48 h) was > 125 µM. The MIC (Candida krusei E28 [32]; E28, 24 h, read-out: MIC CK 24 h) was > 125 µM, the MIC (Candida krusei E28 [32]; E28, 48 h, read-out: MIC CK 48 h) was > 125 µM and the MIC (Candida glabrata 20/I [33]; 24 h, read-out: MIC CG 24 h) was > 125 µM. The MIC (Candida glabrata 20/I [33]; 48 h, read-out: MIC CG 48 h) was > 125 µM, the MIC (Trichosporon asahii 1188 [34]; Trichosporon asahii, 1188, 24 h, read-out: MIC TA 24 h) was > 125 µM and the MIC (Trichosporon asahii 1188 [34]; Trichosporon asahii, 1188, 48 h, read-out: MIC TA 48 h) was > 125 µM. For the same compound, the MIC ([35]; Aspergillus fumigatus, 231, 24 h, read-out: MIC AF 24 h) was > 125 µM, the MIC ([35]; Aspergillus fumigatus, 231, 48 h, read-out: MIC AF 48 h) was > 125 µM and the MIC ([36]; Lichtheimia corymbifera, 272, 24 h, read-out: MIC LC 24 h) was > 125 µM. For the same compound, the MIC ([36]; Lichtheimia corymbifera, 272, 48 h, read-out: MIC LC 48 h) was > 125 µM, the MIC ([1]; Trichophyton interdigitale, 445, 72 h, read-out: MIC TI 72 h) was 62.5 µM (≈ 25.7 µg/mL) and the MIC ([1]; Trichophyton interdigitale, 445, 120 h, read-out: MIC TI 120 h) was 62.5 µM (≈ 25.7 µg/mL). The MIC ([1]; Trichophyton interdigitale, 445, read-out: MIC for T. interdigitale) was 62.5 µM (≈ 25.7 µg/mL), the “SI for Candida sp.” value (Candida sp.) was “inactive” and the “MIC KP-E 48 h” value [37] was >125 µM. For the same compound, the “MIC KP 48 h” value [38] was >125 µM.
